Series [1] in a line: In vivo biodistribution in normal Balb/c mice. The note with it: female, mouse, iv, total radioactivity, normal Balb/c mice, i.v. tail vein, mean ± SD, n = 4-6. Set-up: species or system mouse. How it is done:
(§1) The in vivo biodistribution of ^68Ga-labeled AngII peptide analog was carried out in female Balb/c mice, at various time points, to observe the uptake in the normal tissues and organs and find the excretion route of the radiolabeled peptides. […] Low uptake and retention of the radiopeptide in the liver varying from 1.54 ± 0.28% ID/g at 45 min to 0.48 ± 0.17% ID/g at 2 h p.i. is probably related to the high hydrophilicity (log p = −0.55 ± 0.11) of the ^68Ga-labeled AngII peptide analog. […] The efficient clearance from the kidneys is possibly associated with the urinary excretion of the radiopeptide. […] The low amount of uptake in the bone (up to 0.37 ± 0.14% ID/g) (Table 2) indicates the minimal breakdown of the ^68Ga-labeled AngII peptide complex in vivo combined with the minor release of free ^68Ga. These findings are in agreement with the high in vitro metabolic stability observed in the human plasma for the radiolabeled AngII peptide. The accumulation in the extremely vascular organ lungs was also low (up to 1.11 ± 0.37% ID/g) signifying a low trapping by the lungs.
(§2) Approval from the Institutional Animal Care and Use Committee was obtained for the animal protocol used. Additionally, strict international regulations govern the safe and proper use of laboratory animals employed during animal experiments. In vivo, biodistribution was performed on healthy female mice according to the methods essentially described previously. In summary, Balb/c mice (n = 5 per time point, body mass 20–25 g) at 45 min and 2 h were administered with the HPLC-purified AngII peptide (~1 µg, 100 µL, 0.925–1.85 MBq; 25–50 µCi) via lateral tail vein injection. At the specified time points, the animals were sacrificed by cervical dislocation. A fraction of the blood was collected from cardiac puncture. Urine was also collected and measured with the bladder contents. Major organs, such as the lungs, pancreas, stomach, liver, heart, kidneys, and intestines were isolated, weighed, and measured for radioactivity. The uptake values of the radiolabeled peptide in different organs are expressed as the percent injected dose per gram (% ID/g) of tissue/organ. The radioactivity in the urine with bladder contents is shown as the percent of the injected dose per organ (% ID/organ). To calculate the injected dose, a standard (20-fold dilution of injected dose) was prepared and counted together with animal tissue samples.

The subject of series [2] is Balb/c mice. Nature of the series: In vivo biodistribution in normal Balb/c mice. Also on record: species or system mouse. The note with it: normal Balb/c mice, 45 min and 2 h p.i. How it is done:
as §1, §2

The structures appear in SMILES notation. Like-named read-outs stand apart in the source and are kept apart here. Where a SMILES comes first, the peptide text is derived from it. [ ]: non-standard residue; d: D form. The star is where a group is joined. DOTA = O=C(O)CN1CCN(CC(=O)O)CCN(CC(=O)*)CCN(CC(=O)O)CC1; βAla = NCCC(=O)O

In the case of `CC[C@H](C)[C@H](NC(=O)[C@H](Cc1ccc(O)cc1)NC(=O)[C@@H](NC(=O)[C@H](CCCNC(=N)N)NC(=O)[C@H](CC(=O)O)NC(=O)CCNC(=O)[C@H](CCCCN)NC(=O)CN1CCN(CC(=O)O)CCN(CC(=O)O)CCN(CC(=O)O)CC1)C(C)C)C(=O)N[C@@H](Cc1c[nH]cn1)C(=O)N1CCC[C@H]1C(=O)N[C@@H](Cc1ccccc1)C(=O)N[C@@H](Cc1c[nH]c2ccccc12)C(=O)N[C@@H](CCCCN)C(=O)N[C@@H](Cc1ccc(O)cc1)C(N)=O` [^68Ga-DOTA-AngII peptide, metal not drawn] ({DOTA}-K[βAla]DRVYIHPFWKY-NH2), the tissue uptake at 0.75 h in series [1] (blood, 45 min p.i., read-out: Blood uptake) came to 0.85 ± 0.24 %ID/g; in series [1] (heart, 45 min p.i., read-out: Heart uptake), 1.39 ± 0.51 %ID/g; in series [1] (intestines without contents, 45 min p.i., read-out: Intestines uptake (portion without contents)) it was 1.45 ± 0.39 %ID/g; in series [1] (kidneys, 45 min p.i., read-out: Kidneys uptake), 9.95 ± 3.39 %ID/g; in series [1] (liver, 45 min p.i., read-out: Liver uptake), 1.54 ± 0.28 %ID/g; in series [1] (lungs, 45 min p.i., read-out: Lungs uptake), 1.11 ± 0.37 %ID/g. Further, the tissue uptake at 0.75 h in series [1] (pancreas, 45 min p.i., read-out: Pancreas uptake) amounted to 0.5 ± 0.11 %ID/g; in series [1] (spleen, 45 min p.i., read-out: Spleen uptake) it was 0.51 ± 0.1 %ID/g; in series [1] (stomach, 45 min p.i., read-out: Stomach uptake), 1.06 ± 0.41 %ID/g. For the same compound, the tissue uptake at 2 h in series [1] (blood, 2 h p.i., read-out: Blood uptake) was found to be 0.61 ± 0.15 %ID/g; in series [1] (heart, 2 h p.i., read-out: Heart uptake), 0.99 ± 0.26 %ID/g; in series [1] (intestines without contents, 2 h p.i., read-out: Intestines uptake (portion without contents)), 1 ± 0.28 %ID/g; in series [1] (kidneys, 2 h p.i., read-out: Kidneys uptake), 3.78 ± 1.46 %ID/g; in series [1] (liver, 2 h p.i., read-out: Liver uptake), 0.48 ± 0.17 %ID/g; in series [1] (lungs, 2 h p.i., read-out: Lungs uptake), 0.6 ± 0.2 %ID/g. The tissue uptake at 2 h in series [1] (muscle/bone, 2 h p.i., read-out: Muscle/bone uptake) stood at 0.28 ± 0.1 %ID/g; in series [1] (pancreas, 2 h p.i., read-out: Pancreas uptake) it was 0.33 ± 0.06 %ID/g; in series [1] (spleen, 2 h p.i., read-out: Spleen uptake), 0.31 ± 0.09 %ID/g; in series [1] (stomach, 2 h p.i., read-out: Stomach uptake) it was 0.81 ± 0.23 %ID/g. The dose excreted at 0.75 h in series [1] (urine with bladder contents, 45 min p.i., read-out: Urine + Bladder (urinary excretion)) was determined as 67 ± 8.9%. Also, the dose excreted at 2 h in series [1] (urine with bladder contents, 2 h p.i., read-out: Urine + Bladder (urinary excretion)) came to 80 ± 12.9%. Moreover, the “Radioactivity in the whole intestines (with contents)” value in series [2] was “up to 2.97 % ID/g”.

The values above are taken from article PMC10675340, “Preparation, Radiolabeling with ^68Ga/^177Lu and Preclinical Evaluation of Novel Angiotensin Peptide Analog: A New Class of Peptides for Breast Cancer Targeting” (Pharmaceuticals, 2023).
